Patent US10836767B2, “Serum stable pro-coelenterazine analogues” (PROMEGA CORPORATION, priority 2017, dated 2020)
“Also recorded” adds a separate entry of the source. Each block holds one compound with its values, some of them ahead of it.

Experiments:
[1] = tested on: CMV promoter-NanoLuc® gene transfected HEK293 cells; experiment: Live cell reporter gene assay, luminescent signal decay over time with/without porcine liver esterase (PLE); assay type: cell-based; settings: DMEM, 10% FBS
Method: The synthesized pro-coelenterazine or pro-furimazine compounds were evaluated in a live cell reporter gene assay. As shown in FIGS. 3A-C, the luminescent signal decays were monitored over time in HEK293 cells in DMEM media with 10% FBS transfected with 10 ng/well of CMV promoter-NanoLuc® gene with/without adding exogenous esterase porcine liver esterase (PLE) with three representative pro-coelenterazine analogues, e.g. serum instable compound WZ-0308, traditional live cell pro-substrate PBI-4377, and disclosed serum stable compound WZ-0324. The evaluations were performed by the following protocol.
Day 1: Plate cells. HEK293 cells were grown in complete medium (DMEM+10% FBS+1× Non-Essential Amino Acids (NEAA)). The cells were harvested at passasge 6 (˜95% confluent), by a procedure of: washing with DPBS, treating the cells with TrypLE Express until cells dislodged, adding 4× volumes of complete medium, pelleting at 188×g for 2 minutes, and suspending the cells in complete medium to 7.35E4 cells/mL. The cells were plated 100 μL per well into the inner 60 wells of 96-well plates (7,350 cells per well): 100 μL DPBS in the 36 outside wells and 100 μL DPBS between wells. The cells were than incubated overnight at 37° C., 5% CO2.
Day 2: Transfection. Two two master mixes (MM) were made: MM#1: 1.63 μL prep #1; 9.5 μL prep #3; 1.9 mL OM1; and MM#2: 2.9 uL prep #2; 9.5 μL prep #3; 1.9 mL OM1. 35.6 μl FuGENE HD was added to each MM and mixed by pipetting up/down. The mixture was incubated for ˜10 minutes at room temperature. Next, 8 μL of the mixture was added per well using single channel repeater pipette; n=3 per condition. The mixture was then incubated for ˜24 hours at 37° C., 5% CO2.
(§1) Day 3: Live cell assay. Stocks of tested compounds in DMSO (500×) were prepared by serial dilution of 50 mM stock with DMSO. The Medium+/− porcine liver esterase (PLE) at room temperature was prepared by adding 1 and 0.333 ug/ml PLE in CO2 IM+10% FBS. CO2 IM+10% FBS with no added PLE was also prepared. Next, medium+test compound solutions (room temperature) was prepared by the steps of: adding 2 mL of respective medium per channel, adding 4 μL respective tested compound stock per channel and mixing by pipetting up/down 10-15×. The final DMSO concentration was 0.2% v/v. The DMSO solution was dropped to the bottom of the channel, showing precipitation for the higher concentrations. After pipetting up/down, solutions with WZ-0324 at a final concentration of ≥50 uM were noticeably hazy (100 uM>75 uM>50 uM), in some cases even after extended incubation at 37° C. The Solutions were allowed to stand at room temperature for 15-20 minutes prior to addition to cells (P1->P2->P3).
The medium was aspirated and replaced with 200 μL/well of respective medium+tested compound solution. DPBS was added to 200 μL total to outside 36× wells. The system was quickly moved to respective GMM+ to start RLU measurements at 37° C. The measuments were carried out under the following conditions: 1 second integration time; RLU measurement every 15 minutes; the lid was removed for the overnight RLU measurements; and initial RLU measurement would be <37° C. owing to the addition of room temperature medium and cooling of the plate.
Data analysis: average RLU plotted for n=3; error represented as standard deviation was included in each imbedded Prism file, but not shown for the sake of clarity in interpreting the curves.

[2] = Haze (solubility) observation of medium + test compound solutions; assay type: physicochemical; settings: for concentration above which haze was observed: medium + compound solution
Method: as §1

DLD-1 cells = experiment: Complementary NanoLuc fragment-fused Annexin V real-time apoptosis assay; assay type: cell-based; settings: 10,000 DLD-1 cells/well; rhTRAIL; t=3.5, 7, 24 and 30 hr
From the text: Small and large fragments of luciferase have been engineered as fusion proteins linked to annexin V for detecting of apoptosis in real-time using a plate-reading luminometer. The individual annexin V-luciferase fragment fusion pairs have low intrinsic affinity for each other, and thus produce no or low luminescence in culture medium or in the presence of non-apoptotic cells; but, when the annexin V-luciferase fragment fusion proteins bind in close proximity to phosphatidylserine exposed on the surface of apoptotic cells, the luciferase fragments reconstitute an active enzyme and generate a luminescent signal.
General protocol for complementary NanoLuc® fragment-fused-Annexin V binding: DLD-1 cells (10,000/well; 100 μL) were plated in medium+10% FBS and 2× CellTox Green in a solid white 96-well plate. After the cells were allowed to attach, 50 μL of recombinant human TRAIL at final concentration 500 ng/ml in medium+10% FBS fortified with 1 mM CaCl2 was added. […] The plate was incubated at 37° C./5% CO2 in a tissue culture incubator, and luminescence and fluorescence (Ex 485/Em 520) was measured kinetically at the indicated time points. […] The kinetically preceded increases in fluorescence of Cytotox Green indicate cell death. […]

[3] = Stability test by HPLC in DMSO or DMEM media with or without fetal bovine serum; assay type: in vitro ADME; settings: 40 μM; DMEM media with 10% FBS; 10 hours
Method: “Serum stability” refers to the stability of a compound in media or culture that includes serum. The serum as used herein may include, but is not limited to, fetal bovine serum (FBS). Serum stability of a compound as used herein generally may be characterized by the extent of degradation of such compound in a serum over a period of time. For example, a compound may degrade by less than 25%, less than 20%, less then 15%, or even less than 10% in FBS over a period of 24 hours or longer. For live cell assays, serum (such as FBS) is a component to maintain cell health. The degree of degradation of the disclosed compounds or the other pro-coelenterazine analogues in DMSO control, or DMEM media with/without FBS, can be monitored by HPLC using specific elution solvent/buffer (e.g. 0.1% TFA and acetonitrile) under the same condition at certain time of points. The percentage of purity can be calculated by the peak area of the tested compound divided by the total peak areas including tested compound and degradation compounds at their corresponding retention time at certain absorbance wavelength (e.g. 260 nm) at certain time point in media with/without FBS. The changes of purity for a given compound over time indicate the degree of instability of the compound in media/culture with/without serum.
The tested compounds were dissolved in DMSO stock at a concentration of 20 mM. […]

[4] = tested on: HEK 293 cells transiently transfected with SmBiT-PRKACA and LgBiT-PRKAR2A; experiment: Live cell assay, luminescent signal decay over time in HEK293 cells expressing the PKA NanoBiT pair; assay type: cell-based; settings: DMEM, 4% FBS; for strength of signal relative to PBI-4377: concentration above 20 uM; for luminescent signal decay: almost independent of concentration
Method: Compounds WZ-0429, WZ-0439, WZ-0454, WZ-0441, WZ-0451. WZ-0416, WZ-0420, WZ-0461 and WZ-0419 were tested in HEK 293 cells transiently transfected plasmid DNA constructs for SmBiT-PRKACA and LgBiT-PRKAR2A expressed via the HSV-TK promoter in DMEM media with 4% FBS, and the luminescent signal decays were monitored over time. […] In contrast, the serum instable compounds, WZ-0429. […] The evaluations of compounds WZ-0429, WZ-0439, WZ-0454, WZ-0441, WZ-0451. WZ-0416, WZ-0420, WZ-0461 and WZ-0419 were performed by the following protocol.
Day 1, plate cells. HEK293 cells were grow in complete medium [DMEM+10% FBS+1× NEAA]. Cells were plated at approximately 10,000 cells per well (100 μL) in 96-well plates (Corning 3917).
Day 2, transient transfection. Plasmid DNA constructs for SmBiT-PRKACA and LgBiT-PRKAR2A expressed via the HSV-TK promoter were diluted to 6.25 ng/μL in Opti-MEM® I and FuGENE HD was added at a 3:1 lipid:DNA ratio. After a 5-10 minute incubation at room temperature, 8 μl of lipid:DNA solution was added per well, and cells were incubated in a 37° C., 5% CO2 incubator overnight.
Day 3, live cell assay. Compounds were dissolved to 50 mM final in DMSO. Compounds were diluted in DMSO to give 33.3, 16.7 and 6.7 mM stocks. DMSO stock solutions were diluted 667-fold in Opti-MEM® I to give 1× solutions. Complete medium was aspirated and replaced with the respective 1× solution containing 75, 50, 25 or 10 uM of the respective compounds (0.15% v/v DMSO final), such as WZ-0429, WZ-0439, WZ-0454, WZ-0441WZ-0451, WZ-0416, WZ-0420 and WZ-0419, but containing 40, 30, 20 or 10 μM as an instead for compound WZ-0461. Luminescence was measured on a GloMax Multi Plus luminometer every 15 minutes at 37° C. using a 1 second integration time.

SMILES: CC(=O)OCOc1c(Cc2ccco2)nc2c(Cc3ccccc3)nc(-c3ccccc3)cn12 [WZ-0308]
signal at the initial time point [1]: highest signal | luminescent signal decay ([1]; FIG. 3A): rapid signal decay | period of rapid luminescent signal decay ([1]; even without exogenous PLE): 2 to 3 h

final concentration at which solutions were noticeably hazy ([2]; CO2 IM + 10% FBS, 0.2% v/v DMSO, after pipetting up/down): ≥ 50 µM | concentration above which haze was observed [2]: above 70 μM | concentration above which haze was observed ([2]; listed as WZ-324): > 70 µM
SMILES: COCCOCCOCC(C)(C)C(=O)OCOc1c(Cc2ccco2)nc2c(Cc3ccccc3)nc(-c3ccccc3)cn12 [WZ-0324, ((8-benzyl-2-(furan-2-ylmethyl)-6-phenylimidazo[1,2-a]pyrazin-3-yl)oxy)methyl 3-(2-(2-methoxyethoxy)ethoxy)-2,2-dimethylpropanoate]
luminescence after addition of exogenous PLE esterase versus without PLE ([1]; PLE added): significantly enhanced; also recorded: significantly higher luminescence | signal in the absence of exogenous PLE esterase, versus PBI-4377 ([1]; no PLE): higher signal

SMILES: COCCOCCOCCOCC(C)(C)C(=O)OCOc1c(Cc2ccco2)nc2c(Cc3ccccc3)nc(-c3ccccc3)cn12 [WZ-0336, ((8-benzyl-2-(furan-2-ylmethyl)-6-phenylimidazo[1,2-a]pyrazin-3-yl)oxy)methyl 13,13-dimethyl-2,5,8,11-tetraoxatetradecan-14-oate]
luminescence response to TRAIL with the compound as pro-substrate (DLD-1 cells): dose-dependent increases in luminescence

degradation (HPLC purity change) [3]: approximately 50%
SMILES: CC(C)C(=O)OCOc1c(Cc2ccco2)nc2c(Cc3ccccc3)nc(-c3ccccc3)cn12 [WZ-0415]

SMILES: O=C(OCOc1c(Cc2ccco2)nc2c(Cc3ccccc3)nc(-c3ccccc3)cn12)c1ccccc1 [WZ-0416, ((8-benzyl-2-(furan-2-ylmethyl)-6-phenylimidazo[1,2-a]pyrazin-3-yl)oxy)methyl benzoate]
signal strength (brightness) relative to PBI-4377 [4]: comparable or slightly better

SMILES: O=C(OCOc1c(Cc2ccco2)nc2c(Cc3ccccc3)nc(-c3ccccc3)cn12)c1ccco1 [WZ-0420, ((8-benzyl-2-(furan-2-ylmethyl)-6-phenylimidazo[1,2-a]pyrazin-3-yl)oxy)methyl furan-2-carboxylate]
strength of signal relative to PBI-4377 [4]: 10 times

SMILES: O=C(OCOc1c(Cc2ccco2)nc2c(Cc3ccccc3)nc(-c3ccccc3)cn12)C1CCCO1 (stereo not drawn) [WZ-0429]
luminescent signal decay [4]: rapid signal decay

SMILES: O=C(OCOc1c(Cc2ccco2)nc2c(Cc3ccccc3)nc(-c3ccccc3)cn12)C1CCOC1 (stereo not drawn) [WZ-0439]
luminescent signal decay [4]: rapid signal decay

SMILES: C=CCOC(=O)N1CCC(C(=O)OCOc2c(Cc3ccco3)nc3c(Cc4ccccc4)nc(-c4ccccc4)cn23)C1 (stereo not drawn) [WZ-0441]
luminescent signal decay [4]: rapid signal decay

SMILES: COC(C)(C)C(=O)OCOc1c(Cc2ccco2)nc2c(Cc3ccccc3)nc(-c3ccccc3)cn12 [WZ-0451, ((8-benzyl-2-(furan-2-ylmethyl)-6-phenylimidazo[1,2-a]pyrazin-3-yl)oxy)methyl 2-methoxy-2-methylpropanoate]
strength of signal relative to PBI-4377 [4]: 10 times

SMILES: COC(OC)C(=O)OCOc1c(Cc2ccco2)nc2c(Cc3ccccc3)nc(-c3ccccc3)cn12 [WZ-0454]
luminescent signal decay [4]: rapid signal decay

SMILES: O=C(OCOc1c(Cc2ccco2)nc2c(Cc3ccccc3)nc(-c3ccccc3)cn12)c1ccoc1 [WZ-0461, ((8-benzyl-2-(furan-2-ylmethyl)-6-phenylimidazo[1,2-a]pyrazin-3-yl)oxy)methyl furan-3-carboxylate]
signal strength (brightness) relative to PBI-4377 [4]: comparable or slightly better
